Laboratory results: patent US6800794B1, “Nucleic acid comprising the sequence of a promoter unductible by stress and a gene sequence coding for a stilbene synthase” (Champagne Moet & Chandon, priority 1998, dated 2004)

Key:
[1] = system: Botrytis cinerea mycelium, strain 916T; assay: Inhibition of the growth of Botrytis cinerea mycelium on malt medium containing resveratrol; format: cell-based
Procedure: FIG. 9: Inhibition of the growth of Botrytis cinerea mycelium, strain 916T, after 7 days at 20° C.
The mycelium is cultured on a malt/glucose medium containing different concentrations of resveratrol.
A study was carried out of the action of the molecule on the growth of mycelial hyphae of Botrytis cinera in culture on a malt/agar medium containing a resveratrol dilution range of from 10^−1 M to 3.7.10^−3 M, with the hyphae being incubated at ambient temperature for 7 days. […] However, this inhibition […] progressively after 7 days of culture under these conditions, which are otherwise very favourable to the growth of the fungus. After 20 days, the fungus finally infects the whole of the culture surface.

Botrytis cinerea conidia = conditions: according to PONT and PEZET (1990); cited from earlier work
[2] = system: zoospores of Plasmopora viticola; conditions: according to DAÏ (1994); cited from earlier work

Q: With Oc1ccc(C=Cc2cc(O)cc(O)c2)cc1 [resveratrol] as the compound, how does the IC50 ([1]; Botrytis cinerea, 168 h, read-out: inhibitory effect on growth of mycelial hyphae (IC50), malt/agar medium, 7 days, ambient temperature (FIG. 9: 20° C.)) read?
A: 500 µM

Q: What about the “inhibitory activity on the growth of the mycelium” value ([1]; at 37 μmol.^−1, 7 days) of the same compound?
A: very slight inhibitory activity

Q: What about the “concentrations giving an exponential decrease in the mean growth diameter of the fungus” value ([1]; malt/agar medium, 7 days) of the same compound?
A: greater than 125 μmol.1^−1

Q: And the “blocking of germination of conidia” value (Botrytis cinerea conidia)?
A: does not block

Q: And the “effect on the development of the zoospores” value [2]?
A: inhibitory effect
